Results taken from US8362004B2, “Piperazine analogs as broad-spectrum influenza antivirals” (priority 2010, dated 2013).
pEC50: −log10 of the molar value. Like-named read-outs stand apart in the source and are kept apart here.

Key:
[1] = test system: Influenza A/Solomon Islands/3/06; assay: Antiviral assay in MDCK cells, viral neuraminidase (MUNANA) readout, A/H1N1/Solomon Islands; format: cell-based; conditions: read-out: A/H1N1/Solomon Islands Activity
[2] = test system: influenza A/Brisbane/10/2007; assay: Antiviral assay in MDCK cells, viral neuraminidase (MUNANA) readout, A/H3N2/Brisbane; format: cell-based; conditions: read-out: A/H3N2/Brisbane Activity
influenza A/WSN/33 = assay: Antiviral assay in MDCK cells, viral neuraminidase (MUNANA) readout, A/H1N1/WSN; format: cell-based; conditions: read-out: A/H1N1/WSN Activity
A/H5N1/Duck_PA = assay: microbe, parasite or virus in culture; format: cell-based, influenza A
A/H5N1/Gull_PA = assay: microbe, parasite or virus in culture; format: cell-based, influenza A
A/H5N1/Duck_MN = assay: microbe, parasite or virus in culture; format: cell-based, influenza A
[3] = MDCK cells, MOI 0.001, 48 hrs post infection, viral NA activity
[4] = Influenza A virus, H1N1, MDCK, 48 h
[5] = Influenza A virus, H3N2, MDCK, 48 h
[6] = Influenza A virus, H5N1, read-out: A/H5N1/Duck_PA
[7] = Influenza A virus, H5N1, read-out: A/H5N1/Gull_PA
[8] = Influenza A virus, H5N1, read-out: A/H5N1/Duck_MN

Structure (SMILES)	pEC50 [1, 3]	pEC50 [2, 3]	pEC50 (influenza A/WSN/33; [3])	also measured
COc1ccccc1-c1nnn(C)c1C(=O)N1CCN(c2cc(NC(=O)c3ccc(N4CCCS4(=O)=O)cc3)c([N+](=O)[O-])cc2Cl)CC1 [Example 92]	> 7.00	> 6.00	> 7.00	–
COc1ccccc1-c1noc(C)c1C(=O)N1CCN(c2nc(NC(=O)c3ccc(N(C)C)cc3)c(Cl)cc2Cl)CC1 [Example 52]	> 6.00	> 5.00	> 6.00	–
COc1ccc(C(=O)Nc2cc(N3CCN(C(=O)c4c(-c5ccccc5OC)noc4C)CC3)c(C#N)cc2Cl)cc1 [Example 66]	> 5.00	> 5.00	> 5.00	–
COc1ccccc1-c1noc(C)c1C(=O)N1CCN(c2cc(NC(=O)c3ccc(N(C)S(C)(=O)=O)cc3)c([N+](=O)[O-])cc2Cl)CC1 [Example 35]	> 7.00	> 6.00	> 7.00	–
COc1ccccc1-c1noc(C)c1C(=O)N1CCN(c2cc(NC(=O)c3ccc(-c4nnc(C)o4)cc3)c([N+](=O)[O-])cc2Cl)CC1 [Example 38]	> 6.00	> 7.00	> 6.00	–
COc1ccccc1-c1nnn(C)c1C(=O)N1CCN(c2cc(NC(=O)c3ccc(N4CCCC4=O)cc3)c([N+](=O)[O-])cc2Cl)CC1 [Example 84, N-(4-chloro-5-(4-(4-(2-methoxyphenyl)-1-methyl-1H-1,2,3-triazole-5-carbonyl)piperazin-1-yl)-2-nitrophenyl)-4-(2-oxopyrrolidin-1-yl)benzamide]	–	–	–	pEC50 [1, 4]: > 7.00; pEC50 [2, 5]: > 7.00; pEC50 (influenza A/WSN/33; Influenza A virus, MDCK, 48 h): > 7.00
COc1ccc(C(=O)Nc2nc(N3CCN(C(=O)c4c(-c5ccccc5OC)noc4C)CC3)c(Cl)cc2[N+](=O)[O-])cc1 [Example 43]	> 6.00	> 7.00	> 6.00	–
Cc1c[nH]c(-c2ccccc2Cl)c1C(=O)N1CCN(c2cc(NC(=O)c3ccc(N(C)C)cc3)c([N+](=O)[O-])cc2Cl)CC1 [Example 72]	> 7.00	> 6.00	> 7.00	–
COc1ccccc1-c1noc(C)c1C(=O)N1CCN(c2cc(NC(=O)c3ccc(N(C)C)cc3)c(C#N)cc2Cl)CC1 [Example 65]	> 6.00	> 5.00	> 7.00	–
COc1ccccc1-c1noc(C)c1C(=O)N1CCN(c2cc(NC(=O)c3ccc(-n4cncn4)cc3)c([N+](=O)[O-])cc2Cl)CC1 [Example 37]	> 7.00	> 6.00	> 7.00	–
COc1ccccc1-c1n[nH]c(C)c1C(=O)N1CCN(c2cc(NC(=O)c3ccc(N(C)C)cc3)c([N+](=O)[O-])cc2Cl)CC1 [Example 70, N-(4-chloro-5-(4-(3-(2-methoxyphenyl)-5-methyl-1H-pyrazole-4-carbonyl)piperazin-1-yl)-2-nitrophenyl)-4-(dimethylamino)benzamide]	–	–	–	pEC50 [1, 4]: > 6.00; pEC50 [2, 5]: > 5.00; pEC50 (influenza A/WSN/33; Influenza A virus, MDCK, 48 h): > 7.00
COc1ccccc1-c1nnn(C)c1C(=O)N1CCN(c2cc(NC(=O)c3ccc(N4CCCS4(=O)=O)cc3)c(Br)cc2Cl)CC1 [Example 120, N-(4-chloro-5-(4-(4-(2-methoxyphenyl)-1-methyl-1H-1,2,3-triazole-5-carbonyl)piperazin-1-yl)-2-bromophenyl)-4-(1,1-dioxidoisothiazolidin-2-yl)benzamide]	–	–	–	pEC50 [1, 4]: > 6.00; pEC50 [2, 5]: > 5.00; pEC50 (influenza A/WSN/33; Influenza A virus, MDCK, 48 h): > 6.00
COc1ccccc1-c1nnn(C)c1C(=O)N1CCN(c2cc(NC(=O)c3ccc(N4CCCC4=O)cc3)c([N+](=O)[O-])cc2C#N)CC1 [Example 122, N-(4-cyano-5-(4-(4-(2-methoxyphenyl)-1-methyl-1H-1,2,3-triazole-5-carbonyl)piperazin-1-yl)-2-nitrophenyl)-4-(2-oxopyrrolidin-1-yl)benzamide]	–	–	–	pEC50 [1, 4]: > 6.00; pEC50 [2, 5]: > 6.00; pEC50 (influenza A/WSN/33; Influenza A virus, MDCK, 48 h): > 6.00
COc1ccccc1-c1noc(CF)c1C(=O)N1CCN(c2cc(NC(=O)c3ccc(N(C)C)cc3)c(Cl)cc2Cl)CC1 [Example 69, N-(2,4-dichloro-5-(4-(5-(fluoromethyl)-3-(2-methoxyphenyl)isoxazole-4-carbonyl)piperazin-1-yl)phenyl)-4-(dimethylamino)benzamide]	–	–	–	pEC50 [1, 4]: > 6.00; pEC50 [2, 5]: > 5.00; pEC50 (influenza A/WSN/33; Influenza A virus, MDCK, 48 h): > 6.00
Cc1onc(-c2cccc3ccccc23)c1C(=O)N1CCN(c2cc(NC(=O)c3nccs3)c([N+](=O)[O-])cc2Cl)CC1 [Example 78, N-(4-chloro-5-(4-(5-methyl-3-(naphthalen-1-yl)isoxazole-4-carbonyl)piperazin-1-yl)-2-nitrophenyl)thiazole-2-carboxamide]	–	–	–	pEC50 (A/H5N1/Duck_PA; [6]): > 6.00; pEC50 (A/H5N1/Gull_PA; [7]): > 7.00; pEC50 (A/H5N1/Duck_MN; [8]): > 6.00
COc1ccc(C(=O)Nc2cc(N3CCN(C(=O)c4c(-c5cccc6ccccc56)noc4C)CC3)c(Cl)cc2[N+](=O)[O-])cc1 [Example 77, N-(4-chloro-5-(4-(5-methyl-3-(naphthalen-1-yl)isoxazole-4-carbonyl)piperazin-1-yl)-2-nitrophenyl)-4-methoxybenzamide]	–	–	–	pEC50 (A/H5N1/Duck_PA; [6]): > 6.00; pEC50 (A/H5N1/Gull_PA; [7]): > 7.00; pEC50 (A/H5N1/Duck_MN; [8]): > 6.00
COc1ccccc1-c1noc(C)c1C(=O)N1CCN(c2cc(NC(=O)c3ccc(N(C)C)cc3)c(C)cc2Br)CC1 [Example 54]	> 6.00	> 5.00	> 6.00	–

Structure (SMILES)	pEC50 [1, 3]	pEC50 [2, 3]	pEC50 (influenza A/WSN/33; [3])	also measured
COc1ccccc1-c1noc(C)c1C(=O)N1CCN(c2cc(NC(=O)c3ccco3)c([N+](=O)[O-])cc2Cl)CC1 [Example 8]	–	–	–	pEC50 (A/H5N1/Duck_PA; read-out: A/H5N1/Duck_PA): > 7.00; pEC50 (A/H5N1/Gull_PA; read-out: A/H5N1/Gull_PA): > 7.00; pEC50 (A/H5N1/Duck_MN; read-out: A/H5N1/Duck_MN): > 6.00
COc1ccccc1-n1ncc(C)c1C(=O)N1CCN(c2cc(NC(=O)c3ccc(N(C)C)cc3)c([N+](=O)[O-])cc2Cl)CC1 [Example 73]	> 7.00	> 6.00	> 6.00	–
COc1ccc(C(=O)Nc2cc(N3CCN(C(=O)c4c(-c5ccccc5OC)noc4C)CC3)c(Cl)cc2[N+](=O)[O-])cc1 [Example 1, N-(4-chloro-5-(4-(3-(2-methoxyphenyl)-5-methylisoxazole-4-carbonyl)piperazin-1-yl)-2-nitrophenyl)-4-methoxybenzamide]	–	–	–	pEC50 [1, 4]: > 7.00; pEC50 [2, 5]: > 6.00; pEC50 (influenza A/WSN/33; Influenza A virus, MDCK, 48 h): > 7.00
COc1ccccc1-c1noc(C)c1C(=O)N1CCN(c2cc(NC(=O)c3ccc(N4CCCC4=O)cc3)c([N+](=O)[O-])cc2Cl)CC1 [Example 47, N-(4-chloro-5-(4-(3-(2-methoxyphenyl)-5-methylisoxazole-4-carbonyl)piperazin-1-yl)-2-nitrophenyl)-4-(2-oxopyrrolidin-1-yl)benzamide]	–	–	–	pEC50 [1, 4]: > 7.00; pEC50 [2, 5]: > 6.00; pEC50 (influenza A/WSN/33; Influenza A virus, MDCK, 48 h): > 7.00
COc1ccccc1-c1ncn(C)c1C(=O)N1CCN(c2cc(NC(=O)c3ccc(N(C)C)cc3)c([N+](=O)[O-])cc2C#N)CC1 [Example 124]	> 7.00	> 7.00	> 7.00	–
COc1ccc(C(=O)Nc2cc(N3CCN(C(=O)c4c(-c5ccccc5OC)ncn4C)CC3)c(Cl)cc2[N+](=O)[O-])cc1 [Example 102]	> 6.00	> 5.00	> 7.00	–
COc1ccccc1-c1noc(C)c1C(=O)N1CCN(c2cc(NC(=O)c3ccc(N(C)C)cc3)c(Cl)cc2Cl)CC1 [Example 55]	> 7.00	> 6.00	> 7.00	–
COc1ccccc1-c1ncn(C)c1C(=O)N1CCN(c2cc(NC(=O)c3ccc(N(C)C)cc3)c([N+](=O)[O-])cc2Cl)CC1 [Example 81]	> 7.00	> 5.00	> 7.00	–
COc1ccccc1-c1noc(C)c1C(=O)N1CCN(c2cc(NC(=O)c3ccc(C)cc3)c([N+](=O)[O-])cc2Cl)CC1 [Example 24]	> 7.00	> 5.00	> 7.00	–
COc1ccccc1-c1noc(C)c1C(=O)N1CCN(c2cc(NC(=O)c3nccs3)c(Cl)cc2Cl)CC1 [Example 56]	> 5.00	> 5.00	> 6.00	–
C=Cc1cc(Cl)c(N2CCN(C(=O)c3c(-c4ccccc4OC)noc3C)CC2)cc1NC(=O)c1ccc(N(C)C)cc1 [Example 125, N-(4-chloro-5-(4-(3-(2-methoxyphenyl)-5-methylisoxazole-4-carbonyl)piperazin-1-yl)-2-vinylphenyl)-4-(dimethylamino)benzamide]	–	–	–	pEC50 [1, 4]: > 6.00; pEC50 [2, 5]: > 5.00; pEC50 (influenza A/WSN/33; Influenza A virus, MDCK, 48 h): > 6.00
COc1ccccc1-c1noc(C)c1C(=O)N1CCN(c2cc(NC(=O)c3ccc(SC)cc3)c([N+](=O)[O-])cc2Cl)CC1 [Example 11]	–	–	–	pEC50 (A/H5N1/Duck_PA; read-out: A/H5N1/Duck_PA): > 7.00; pEC50 (A/H5N1/Gull_PA; read-out: A/H5N1/Gull_PA): > 7.00; pEC50 (A/H5N1/Duck_MN; read-out: A/H5N1/Duck_MN): > 6.00
COc1ccccc1-c1noc(C)c1C(=O)N1CCN(c2cc(NC(=O)c3ccc(N(C)C)cc3)c([N+](=O)[O-])cc2C#N)CC1 [Example 68]	> 7.00	> 7.00	> 6.00	–
CCOc1ccc(C(=O)Nc2cc(N3CCN(C(=O)c4c(-c5ccccc5OC)noc4C)CC3)c(Cl)cc2[N+](=O)[O-])cc1 [Example 15]	–	–	–	pEC50 (A/H5N1/Duck_PA; read-out: A/H5N1/Duck_PA): > 6.00; pEC50 (A/H5N1/Gull_PA; read-out: A/H5N1/Gull_PA): > 7.00; pEC50 (A/H5N1/Duck_MN; read-out: A/H5N1/Duck_MN): > 6.00
COc1ccccc1-c1noc(C)c1C(=O)N1CCN(c2cc(NC(=O)C3CCC3)c([N+](=O)[O-])cc2Cl)CC1 [Example 9]	> 6.00	> 5.00	> 7.00	–
COc1ccccc1-c1noc(C)c1C(=O)N1CCN(c2cc(NC(=O)c3ccc(OC(F)F)cc3)c([N+](=O)[O-])cc2Cl)CC1 [Example 13]	–	–	–	pEC50 (A/H5N1/Duck_PA; read-out: A/H5N1/Duck_PA): > 6.00; pEC50 (A/H5N1/Gull_PA; read-out: A/H5N1/Gull_PA): > 7.00; pEC50 (A/H5N1/Duck_MN; read-out: A/H5N1/Duck_MN): > 6.00
